# The source made the active and inactive calls. The calls are words filed in the database; no cut-off is given here.
# Legend:
# [1] = molecular target: Putative phosphatidylinositol 4-kinase alpha-like protein P2 (Homo sapiens) (UniProt A4QPH2); assay: Inhibition of PI4KAP2 ATP labeling site in human Huh-7 cells at 1 uM by KiNativ Profiling analysis relative to control; format: cell-based
# [2] = molecular target: Glycogen synthase kinase-3 alpha (Homo sapiens) (UniProt P49840); assay: Inhibition of GSK3A Lys2 labeling site in human Huh-7 cell lysate at 1 uM by KiNativ Profiling analysis relative to control; format: subcellular
# [3] = molecular target: Serine/threonine-protein kinase PLK1 (Homo sapiens) (UniProt P53350); assay: Inhibition of PLK1 Lys1 labeling site harbouring EVFAGKIVPK in human Huh-7 cell lysate at 1 uM by KiNativ Profiling analysis relative to control; format: subcellular
# [4] = molecular target: T1, Serine/threonine-protein kinase Nek9 (Homo sapiens) (UniProt Q8TD19); assay: Inhibition of NEK9 Lys2 labeling site in human A-375 cells at 0.5 uM by KiNativ Profiling analysis relative to control; format: cell-based
# T1 sequence (whole entry): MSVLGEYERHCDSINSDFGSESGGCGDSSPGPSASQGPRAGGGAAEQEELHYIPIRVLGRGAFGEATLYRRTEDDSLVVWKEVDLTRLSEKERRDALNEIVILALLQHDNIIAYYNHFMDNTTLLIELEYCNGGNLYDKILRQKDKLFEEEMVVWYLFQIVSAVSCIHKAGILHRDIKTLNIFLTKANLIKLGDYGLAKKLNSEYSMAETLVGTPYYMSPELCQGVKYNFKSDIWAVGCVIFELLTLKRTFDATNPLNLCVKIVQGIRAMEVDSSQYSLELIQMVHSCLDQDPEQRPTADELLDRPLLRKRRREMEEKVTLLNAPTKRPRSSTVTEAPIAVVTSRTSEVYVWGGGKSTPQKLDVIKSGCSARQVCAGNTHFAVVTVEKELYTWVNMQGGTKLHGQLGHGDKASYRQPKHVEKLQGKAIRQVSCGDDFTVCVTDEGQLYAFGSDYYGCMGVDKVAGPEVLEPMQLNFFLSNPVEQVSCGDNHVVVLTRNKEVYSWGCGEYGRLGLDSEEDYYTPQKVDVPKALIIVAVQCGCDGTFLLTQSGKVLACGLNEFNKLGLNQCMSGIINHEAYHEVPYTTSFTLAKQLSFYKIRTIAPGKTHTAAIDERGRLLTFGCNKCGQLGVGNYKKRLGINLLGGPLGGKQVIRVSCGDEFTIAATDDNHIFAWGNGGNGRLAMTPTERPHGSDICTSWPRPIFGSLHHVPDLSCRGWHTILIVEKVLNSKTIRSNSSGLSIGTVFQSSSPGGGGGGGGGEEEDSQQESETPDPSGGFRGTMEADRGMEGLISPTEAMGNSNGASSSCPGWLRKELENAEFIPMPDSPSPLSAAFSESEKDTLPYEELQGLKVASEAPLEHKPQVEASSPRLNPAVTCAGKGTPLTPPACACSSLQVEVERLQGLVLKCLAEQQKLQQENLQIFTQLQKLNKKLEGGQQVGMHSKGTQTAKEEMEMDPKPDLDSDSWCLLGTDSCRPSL
# [5] = molecular target: Serine/threonine-protein kinase Nek2 (Homo sapiens) (UniProt P51955); assay: Inhibition of NEK2 (unknown origin) at 1 uM by Ambit Kinomescan binding assay relative to control; values are per cent of control
# [6] = molecular target: Ephrin type-A receptor 6 (Homo sapiens) (UniProt Q9UF33); assay: Inhibition of EPHA6 (unknown origin) at 1 uM by Ambit Kinomescan binding assay relative to control; values are per cent of control
# [7] = molecular target: T2, Mitogen-activated protein kinase kinase kinase 3 (Homo sapiens) (UniProt Q99759); assay: Inhibition of MAP3K3 (unknown origin) at 1 uM by Ambit Kinomescan binding assay relative to control; values are per cent of control
# T2 sequence (whole entry): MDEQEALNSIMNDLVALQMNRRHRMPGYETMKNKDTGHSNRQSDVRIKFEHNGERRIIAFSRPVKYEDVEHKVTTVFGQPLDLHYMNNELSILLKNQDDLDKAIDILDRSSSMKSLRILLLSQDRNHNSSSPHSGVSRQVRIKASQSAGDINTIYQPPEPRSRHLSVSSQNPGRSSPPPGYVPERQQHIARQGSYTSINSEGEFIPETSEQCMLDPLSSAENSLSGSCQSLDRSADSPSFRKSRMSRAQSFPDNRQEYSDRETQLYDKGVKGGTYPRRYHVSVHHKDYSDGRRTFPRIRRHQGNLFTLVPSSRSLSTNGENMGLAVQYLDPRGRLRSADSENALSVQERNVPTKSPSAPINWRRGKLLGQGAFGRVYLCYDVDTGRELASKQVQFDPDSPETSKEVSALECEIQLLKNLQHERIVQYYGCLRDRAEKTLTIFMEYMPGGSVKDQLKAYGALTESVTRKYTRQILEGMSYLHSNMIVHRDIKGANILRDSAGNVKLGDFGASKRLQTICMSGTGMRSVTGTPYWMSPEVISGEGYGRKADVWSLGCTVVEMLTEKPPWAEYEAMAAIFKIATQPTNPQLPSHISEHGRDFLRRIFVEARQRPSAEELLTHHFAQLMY
# [8] = molecular target: T3, Myotonin-protein kinase (Homo sapiens) (UniProt Q09013); assay: Inhibition of DMPK (unknown origin) at 10 uM by Ambit Kinomescan binding assay
# T3 sequence (whole entry): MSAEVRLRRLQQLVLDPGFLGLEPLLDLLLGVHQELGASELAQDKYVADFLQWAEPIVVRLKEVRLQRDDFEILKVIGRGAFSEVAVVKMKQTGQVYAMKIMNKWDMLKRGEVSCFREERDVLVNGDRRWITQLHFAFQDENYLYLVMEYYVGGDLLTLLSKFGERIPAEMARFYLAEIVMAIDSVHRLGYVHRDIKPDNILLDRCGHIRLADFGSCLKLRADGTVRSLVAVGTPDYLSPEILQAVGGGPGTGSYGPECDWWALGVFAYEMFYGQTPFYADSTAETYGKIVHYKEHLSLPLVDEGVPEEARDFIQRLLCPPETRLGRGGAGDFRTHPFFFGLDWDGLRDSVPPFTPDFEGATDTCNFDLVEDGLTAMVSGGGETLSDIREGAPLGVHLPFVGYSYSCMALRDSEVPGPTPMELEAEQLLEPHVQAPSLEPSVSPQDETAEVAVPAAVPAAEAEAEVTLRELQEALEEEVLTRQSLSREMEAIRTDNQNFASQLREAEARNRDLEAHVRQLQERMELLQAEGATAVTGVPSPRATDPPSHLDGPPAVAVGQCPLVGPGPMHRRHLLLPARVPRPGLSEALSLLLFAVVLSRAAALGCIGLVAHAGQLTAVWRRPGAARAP
# [9] = molecular target: Mitogen-activated protein kinase kinase kinase kinase 1 (Homo sapiens) (UniProt Q92918); assay: Inhibition of HPK1 (unknown origin) at 10 uM by Ambit Kinomescan binding assay relative to control; values are per cent of control
# [10] = molecular target: T1, Serine/threonine-protein kinase Nek9 (Homo sapiens); assay: Inhibition of NEK9 (unknown origin) at 10 uM by Ambit Kinomescan binding assay
# Sequence of Ephrin type-A receptor 6 (Homo sapiens) (Q9UF33 whole entry): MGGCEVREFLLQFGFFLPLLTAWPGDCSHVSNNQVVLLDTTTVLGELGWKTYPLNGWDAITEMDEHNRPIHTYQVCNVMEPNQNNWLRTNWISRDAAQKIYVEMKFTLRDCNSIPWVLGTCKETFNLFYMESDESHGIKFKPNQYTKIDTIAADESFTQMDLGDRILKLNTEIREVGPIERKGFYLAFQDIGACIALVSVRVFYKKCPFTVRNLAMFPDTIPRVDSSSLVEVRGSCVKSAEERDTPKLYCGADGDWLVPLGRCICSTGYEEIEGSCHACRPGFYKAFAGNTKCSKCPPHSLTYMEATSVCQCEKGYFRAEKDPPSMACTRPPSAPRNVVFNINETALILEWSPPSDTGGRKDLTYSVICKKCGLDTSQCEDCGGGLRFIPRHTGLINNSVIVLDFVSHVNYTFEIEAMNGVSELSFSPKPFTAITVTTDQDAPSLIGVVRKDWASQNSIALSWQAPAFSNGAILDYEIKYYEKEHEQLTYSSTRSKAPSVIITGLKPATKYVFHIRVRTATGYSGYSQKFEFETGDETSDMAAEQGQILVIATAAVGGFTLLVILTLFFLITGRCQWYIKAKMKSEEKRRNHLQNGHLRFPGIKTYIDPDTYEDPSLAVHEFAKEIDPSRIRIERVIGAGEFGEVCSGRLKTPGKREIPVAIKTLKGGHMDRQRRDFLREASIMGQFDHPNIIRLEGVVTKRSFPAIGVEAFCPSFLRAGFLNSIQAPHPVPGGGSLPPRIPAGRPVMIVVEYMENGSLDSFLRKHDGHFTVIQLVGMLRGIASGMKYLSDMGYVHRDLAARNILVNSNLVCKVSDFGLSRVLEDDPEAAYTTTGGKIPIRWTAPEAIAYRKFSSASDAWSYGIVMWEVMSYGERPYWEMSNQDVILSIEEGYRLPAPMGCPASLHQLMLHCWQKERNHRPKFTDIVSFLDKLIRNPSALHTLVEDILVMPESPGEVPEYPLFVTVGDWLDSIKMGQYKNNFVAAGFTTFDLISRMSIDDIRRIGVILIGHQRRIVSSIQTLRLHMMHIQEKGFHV
# Sequence of Putative phosphatidylinositol 4-kinase alpha-like protein P2 (Homo sapiens) (A4QPH2 whole entry): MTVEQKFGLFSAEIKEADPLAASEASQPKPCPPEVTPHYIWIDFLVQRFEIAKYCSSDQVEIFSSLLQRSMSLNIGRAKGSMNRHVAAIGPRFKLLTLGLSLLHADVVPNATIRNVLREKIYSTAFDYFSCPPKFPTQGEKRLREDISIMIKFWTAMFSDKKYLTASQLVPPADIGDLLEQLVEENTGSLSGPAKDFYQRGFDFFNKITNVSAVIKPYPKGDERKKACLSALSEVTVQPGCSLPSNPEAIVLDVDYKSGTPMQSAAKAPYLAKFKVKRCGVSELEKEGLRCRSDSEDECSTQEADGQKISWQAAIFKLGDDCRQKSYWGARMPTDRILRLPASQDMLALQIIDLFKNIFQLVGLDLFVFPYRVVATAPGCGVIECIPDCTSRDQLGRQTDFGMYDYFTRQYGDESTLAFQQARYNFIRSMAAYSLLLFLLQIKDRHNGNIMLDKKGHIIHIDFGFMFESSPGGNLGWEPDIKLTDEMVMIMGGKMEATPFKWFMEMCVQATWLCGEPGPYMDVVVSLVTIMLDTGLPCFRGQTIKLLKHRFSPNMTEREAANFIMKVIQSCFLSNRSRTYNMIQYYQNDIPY
# Sequence of Mitogen-activated protein kinase kinase kinase kinase 1 (Homo sapiens) (Q92918 whole entry, looked up): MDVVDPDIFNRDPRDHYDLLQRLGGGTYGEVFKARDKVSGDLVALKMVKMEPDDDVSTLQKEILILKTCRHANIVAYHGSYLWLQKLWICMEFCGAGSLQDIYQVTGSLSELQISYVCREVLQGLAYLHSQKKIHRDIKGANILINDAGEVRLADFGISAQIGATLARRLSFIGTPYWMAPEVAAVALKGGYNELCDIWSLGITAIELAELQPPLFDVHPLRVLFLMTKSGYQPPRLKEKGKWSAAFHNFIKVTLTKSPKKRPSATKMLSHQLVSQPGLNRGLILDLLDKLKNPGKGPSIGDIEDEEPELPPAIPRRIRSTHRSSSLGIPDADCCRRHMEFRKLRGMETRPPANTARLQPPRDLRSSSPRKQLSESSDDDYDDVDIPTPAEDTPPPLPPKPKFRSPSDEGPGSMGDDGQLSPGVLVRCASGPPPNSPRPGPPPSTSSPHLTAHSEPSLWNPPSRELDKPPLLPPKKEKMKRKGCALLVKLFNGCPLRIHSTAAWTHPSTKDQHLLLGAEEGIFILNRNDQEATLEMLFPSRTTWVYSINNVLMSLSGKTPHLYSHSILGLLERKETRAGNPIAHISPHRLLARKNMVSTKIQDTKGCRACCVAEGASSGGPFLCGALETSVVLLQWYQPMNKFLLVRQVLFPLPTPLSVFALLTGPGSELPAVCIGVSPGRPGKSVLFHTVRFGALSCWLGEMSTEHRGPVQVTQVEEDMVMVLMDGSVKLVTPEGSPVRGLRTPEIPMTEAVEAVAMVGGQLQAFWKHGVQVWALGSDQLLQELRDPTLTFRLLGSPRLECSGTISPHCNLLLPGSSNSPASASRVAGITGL
# Sequence of Serine/threonine-protein kinase Nek2 (Homo sapiens) (P51955 whole entry): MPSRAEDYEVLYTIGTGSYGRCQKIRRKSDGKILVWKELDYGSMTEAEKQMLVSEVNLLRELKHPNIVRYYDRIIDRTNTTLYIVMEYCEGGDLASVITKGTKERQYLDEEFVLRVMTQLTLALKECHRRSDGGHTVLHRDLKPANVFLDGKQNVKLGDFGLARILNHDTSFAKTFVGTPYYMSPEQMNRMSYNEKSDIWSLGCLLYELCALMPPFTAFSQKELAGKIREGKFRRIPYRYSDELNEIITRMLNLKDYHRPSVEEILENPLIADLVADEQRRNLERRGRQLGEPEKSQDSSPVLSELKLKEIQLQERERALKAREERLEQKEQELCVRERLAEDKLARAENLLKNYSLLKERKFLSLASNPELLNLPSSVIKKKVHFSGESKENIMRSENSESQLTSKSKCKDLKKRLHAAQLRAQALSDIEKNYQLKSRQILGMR
# Sequence of Glycogen synthase kinase-3 alpha (Homo sapiens) (P49840 2-483 limits assumed): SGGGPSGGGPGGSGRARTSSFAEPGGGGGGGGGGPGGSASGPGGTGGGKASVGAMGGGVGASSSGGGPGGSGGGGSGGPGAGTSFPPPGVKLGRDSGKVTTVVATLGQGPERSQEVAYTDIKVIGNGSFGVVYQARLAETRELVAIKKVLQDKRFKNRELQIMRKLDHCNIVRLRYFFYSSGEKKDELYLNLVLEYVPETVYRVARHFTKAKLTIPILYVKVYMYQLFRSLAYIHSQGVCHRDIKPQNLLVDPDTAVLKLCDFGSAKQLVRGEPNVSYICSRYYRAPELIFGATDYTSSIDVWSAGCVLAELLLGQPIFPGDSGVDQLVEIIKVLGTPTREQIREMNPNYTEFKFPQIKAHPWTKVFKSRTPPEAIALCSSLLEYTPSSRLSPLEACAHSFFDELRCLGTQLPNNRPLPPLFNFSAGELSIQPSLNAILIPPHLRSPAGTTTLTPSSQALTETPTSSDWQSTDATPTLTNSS
# Sequence of Serine/threonine-protein kinase PLK1 (Homo sapiens) (P53350 whole entry): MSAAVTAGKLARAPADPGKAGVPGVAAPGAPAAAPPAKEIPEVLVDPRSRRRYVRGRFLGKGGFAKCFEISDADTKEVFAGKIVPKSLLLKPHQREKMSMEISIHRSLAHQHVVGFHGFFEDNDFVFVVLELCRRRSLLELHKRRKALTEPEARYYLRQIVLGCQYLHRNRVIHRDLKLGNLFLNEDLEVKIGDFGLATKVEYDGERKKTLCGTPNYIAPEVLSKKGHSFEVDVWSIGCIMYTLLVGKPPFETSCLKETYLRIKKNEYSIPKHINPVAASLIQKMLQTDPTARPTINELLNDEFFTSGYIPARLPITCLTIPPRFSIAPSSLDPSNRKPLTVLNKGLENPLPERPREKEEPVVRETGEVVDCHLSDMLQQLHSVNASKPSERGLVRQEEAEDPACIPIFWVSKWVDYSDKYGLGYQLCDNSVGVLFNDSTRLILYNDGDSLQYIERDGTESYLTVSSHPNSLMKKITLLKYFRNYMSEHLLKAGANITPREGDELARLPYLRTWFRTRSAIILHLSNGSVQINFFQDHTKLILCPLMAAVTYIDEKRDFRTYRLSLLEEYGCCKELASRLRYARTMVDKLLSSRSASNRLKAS
structure (smiles),measurement,setting,value
CNc1cc(Oc2cc(C(=O)Nc3cc(N4CCN(C)CC4)cc(C(F)(F)F)c3)ccc2C)ncn1,inhibition,[1],29.8%
same,inhibition,[2],-5.8%
same,inhibition,[3],1.8%
CCN1CCN(Cc2ccc(NC(=O)c3ccc(C)c(/C=C/c4cnc5[nH]ccc5c4OC)c3)cc2C(F)(F)F)CC1,inhibition,[4],10.4%
same,residual activity,[5],100%
same,residual activity,[6],29%
same,residual activity,[7],2%
CCN1CCN(Cc2ccc(NC(=O)c3ccc(C)c(Oc4ccnc5[nH]ccc45)c3)cc2C(F)(F)F)CC1,inhibition,[8],inactive
same,% of control,[9],1.6%
same,inhibition,[10],inactive

# Reference: ChEMBL document CHEMBL5696442, “Discovery of type II inhibitors of TGFβ-activated kinase 1 (TAK1) and mitogen-activated protein kinase kinase kinase kinase 2 (MAP4K2)” (J Med Chem, 2015)
